These results are taken from patent publication US20090221598A1, “Use of Sanglifehrin in HCV” (priority 2005, published 2009).

One data set concerns FK binding protein. Put plainly: Standard test for FK binding protein binding activity. The conditions noted are these: standard tests.
A further data set deals with calcineurin. Put plainly: Standard test for calcineurin activity. The note with it: standard tests. It is filed as biochemical.
In data set [1] the test system is human monocytic cell line THP1. In words: Cytotoxicity, MTT read-out. It is filed as cell-based. How it is done:
Cytotoxicity is determined using the human monocytic cell line THP1 (5×10^4 cells/well) which are incubated in the presence of IFNgamma (100 U/ml) and LPS (5 microgram/ml) plus test compound (up to 10 micromolar) for 24 to 72 h at 37° C. Living cells are quantified using the colourimetric read-out MTT which measures mitochondrial dehydrogenase enzymatic activity in living cells (Mossman 1983). Macrolides of the invention, e.g. compounds of formula IX and their pharmaceutically acceptable salts, e.g. Sanglifehrins A, B, C and D, have IC50 of about 1000-5000 nM after 24 h incubation in this assay. (Mossman T. J. (1983), Rapid calorimetric assay for cellular growth and survival: application to proliferation and cytotoxic assays, J. Imm. Methods, 65, 55-63).

Regarding Sanglifehrin B, in the data set on FK binding protein, the “FK binding protein binding activity” value is given as “do not have FK binding protein binding activity”. In addition, in the data set with calcineurin, the “inhibition of calcineurin activity” value is “do not inhibit calcineurin activity”. In data set [1], the IC50 was 1 to 5 µM.

Turning to Sanglifehrin A, the “FK binding protein binding activity” value in the data set on FK binding protein is “do not have FK binding protein binding activity”. In addition, the “inhibition of calcineurin activity” value in the data set on calcineurin is recorded as “do not inhibit calcineurin activity”.

As usually defined, the IC50 is the midpoint of a concentration-inhibition curve.
